Reference: patent US20250163002A1, “FUSED QUINONOXIME IMIDAZOLE, ONIUM DERIVATIVES THEREOF, PREPARATION AND USE THEREOF” (SHANGHAI JIAO TONG UNIVERSITY, priority 2022, published 2025)

Columns and labels:
Format in all cases: cell-based
[1] = test system: L929; assay: In vitro cell proliferation inhibition test (MTT), L929; conditions: unit inferred
[2] = test system: HeLa; assay: In vitro inhibition test for cancer cell proliferation (MTT), HeLa; conditions: 24 h or 48 h after addition, unit inferred
[3] = test system: A549; assay: In vitro inhibition test for cancer cell proliferation (MTT), A549; conditions: unit inferred
[4] = test system: MCF-7; assay: In vitro inhibition test for cancer cell proliferation (MTT), MCF-7; conditions: unit inferred

Row | IC50 ([2]; Homo sapiens, HeLa) | IC50 ([3]; Homo sapiens, A549, 24 h or 48 h after addition) | IC50 ([4]; Homo sapiens, MCF7, 24 h or 48 h after addition) | Compound | IC50 ([1]; 24 h or 48 h after addition) | IC50 [2] | IC50 ([3]; 24 h or 48 h after addition) | IC50 ([4]; 24 h or 48 h after addition) | IC50 ([1]; Mus musculus, L929, 24 h or 48 h after addition)
1 | – | – | – | Cn1c[n+](C)c2c1C(=O)c1ccccc1/C2=N\O [Compound 91, (E)-1-methyl-4-(hydroxylimino)-3-methyl-9-oxo-4,9-dihydro-1H-naphthol[2,3-d]imidazole-3-iodide] | 4.7 µM | 0.67 µM | 0.53 µM | 0.84 µM | –
2 | – | – | – | CCn1c[n+](C)c2c1C(=O)c1ccccc1/C2=N\O [Compound 92, (E)-1-ethyl-4-(hydroxylimino)-3-methyl-9-oxo-4,9-dihydro-1H-naphthol[2,3-d]imidazole-3-iodide] | 13.5 µM | 1.63 µM | 0.54 µM | 0.94 µM | –
3 | – | – | – | CCCn1c[n+](C)c2c1C(=O)c1ccccc1/C2=N\O [Compound 93, (E)-4-(hydroxylimino)-3-methyl-9-oxo-1-propyl-4,9-dihydro-1H-naphthol[2,3-d]imidazole-3-iodide] | 32.7 µM | 2.18 µM | 1.03 µM | 1.43 µM | –
4 | 1.43 µM | 0.67 µM | 0.84 µM | CCCCn1c[n+](C)c2c1C(=O)c1ccccc1/C2=N\O [Compound 94, (E)-1-butyl-4-(hydroxylimino)-3-methyl-9-oxo-4,9-dihydro-1H-naphthol[2,3-d]imidazole-3-iodide] | – | – | – | – | 39.2 µM
5 | – | – | – | CC(C)n1c[n+](C)c2c1C(=O)c1ccccc1/C2=N\O [Compound 95, (E)-4-(hydroxylimino)-1-isopropyl-3-methyl-9-oxo-4,9-dihydro-1H-naphthol[2,3-d]imidazole-3-iodide] | 26.3 µM | 18.3 µM | 1.89 µM | 2 µM | –
6 | – | – | – | CC(C)Cn1c[n+](C)c2c1C(=O)c1ccccc1/C2=N\O [Compound 96, (E)-4-(hydroxylimino)-1-isobutyl-3-methyl-9-oxo-4,9-dihydro-1H-naphthol[2,3-d]imidazole-3-iodide] | 57.4 µM | 9.7 µM | 2.43 µM | 1.26 µM | –
7 | – | – | – | CCC(C)Cn1c[n+](C)c2c1C(=O)c1ccccc1/C2=N\O (stereo not shown) [Compound 97, (E)-4-(hydroxylimino)-3-methyl-1-(2-methylbutyl)-9-oxo-4,9-dihydro-1H-naphthol[2,3-d]imidazole-3-iodide] | 74 µM | 1.97 µM | 1.37 µM | 1.05 µM | –
8 | – | – | – | C[n+]1cn(C(C)(C)C)c2c1/C(=N/O)c1ccccc1C2=O [Compound 98, (E)-1-(tert-butyl)-4-(hydroxylimino)-3-methyl-9-oxo-4,9-dihydro-1H-naphthol[2,3-d]imidazole-3-iodide] | 38.9 µM | 2.18 µM | 0.59 µM | 1.81 µM | –
9 | – | – | – | C[n+]1cn(C2CC2)c2c1/C(=N/O)c1ccccc1C2=O [Compound 99, (E)-1-cyclopropyl-4-(hydroxylimino)-3-methyl-9-oxo-4,9-dihydro-1H-naphthol[2,3-d]imidazole-3-iodide] | 19.8 µM | 5.74 µM | 1.72 µM | 1.63 µM | –
10 | – | – | – | COCCn1c[n+](C)c2c1C(=O)c1ccccc1/C2=N\O [Compound 100, (E)-4-(hydroxylimino)-1-(2-methoxyethyl)-3-methyl-9-oxo-4,9-dihydro-1H-naphthol[2,3-d]imidazole-3-iodide] | 6.64 µM | 2.18 µM | 0.62 µM | 0.87 µM | –
11 | – | – | – | CC(C)=CCn1c[n+](C)c2c1C(=O)c1ccccc1/C2=N\O [Compound 101, (E)-4-(hydroxylimino)-3-methyl-1-(3-methyl-2-ene-1-yl)-9-oxo-4,9-dihydro-1H-naphthol[2,3-d]imidazole-3-iodide] | 13.1 µM | 1.8 µM | 0.64 µM | 0.87 µM | –
12 | – | – | – | C[n+]1cn(Cc2ccccc2)c2c1/C(=N/O)c1ccccc1C2=O [Compound 102, (E)-1-benzyl-4-(hydroxylimino)-3-methyl-9-oxo-4,9-dihydro-1H-naphthol[2,3-d]imidazole-3-iodide] | 37.4 µM | 1.05 µM | 0.63 µM | 0.89 µM | –
13 | – | – | – | CCOC(=O)Cn1c[n+](C)c2c1C(=O)c1ccccc1/C2=N\O [Compound 103, (E)-1-(2-ethoxy-2-ethoxy)-4-(hydroxylimino)-3-methyl-9-oxo-4,9-dihydro-1H-naphthol[2,3-d]imidazole-3-iodide] | > 100 µM | 2.73 µM | 0.6 µM | 1.63 µM | –
14 | – | – | – | C[n+]1cn(-c2ccccc2)c2c1/C(=N/O)c1ccccc1C2=O [Compound 104, (E)-4-(hydroxylimino)-3-methyl-9-oxo-1-phenyl-4,9-dihydro-1H-naphthol[2,3-d]imidazole-3-iodide] | > 100 µM | 12.5 µM | 12.2 µM | 1.43 µM | –
15 | – | – | – | Cc1cc(C)c(-n2c[n+](C)c3c2C(=O)c2ccccc2/C3=N\O)c(C)c1 [Compound 105, (E)-4-(hydroxylimino)-1-sym-trimethyl-3-methyl-9-oxo-4,9-dihydro-1H-naphthol[2,3-d]imidazole-3-iodide] | > 100 µM | 22.6 µM | 1.11 µM | 6.12 µM | –
16 | – | – | – | C[n+]1cn(Cc2cccs2)c2c1/C(=N/O)c1ccccc1C2=O [Compound 106, (E)-4-(hydroxylimino)-3-methyl-9-oxo-1-(thiophene-2-yl-methyl)-4,9-dihydro-1H-naphthol[2,3-d]imidazole-3-iodide] | > 100 µM | 9.2 µM | 11.2 µM | 20.2 µM | –
17 | – | – | – | C[n+]1cn(CC2OCCO2)c2c1/C(=N/O)c1ccccc1C2=O [Compound 107, (E)-1-((1,3-dioxoheterocycle-2-yl)methyl)-4-(hydroxylimino)-3-methyl-9-oxo-4,9-dihydro-1H-naphthol[2,3-d]imidazole-3-iodide] | > 100 µM | > 100 µM | 0.6 µM | 9.85 µM | –
18 | – | – | – | C[n+]1cn(Cc2ccc(F)cc2)c2c1/C(=N/O)c1ccccc1C2=O [Compound 108, (E)-1-(4-fluorobenzyl)-4-(hydroxylimino)-3-methyl-9-oxo-4,9-dihydro-1H-naphthol[2,3-d]imidazole-3-iodide] | > 100 µM | 2.38 µM | 0.5 µM | 1.63 µM | –
19 | – | – | – | C[n+]1cn(-c2ccccc2F)c2c1/C(=N/O)c1ccccc1C2=O [Compound 109, (E)-1-(2-fluorophenyl)-4-(hydroxylimino)-3-methyl-9-oxo-4,9-dihydro-1H-naphthol[2,3-d]imidazole-3-iodide] | > 100 µM | 50 µM | 11.2 µM | 57.8 µM | –
20 | – | – | – | C[n+]1cn(-c2cccc(F)c2)c2c1/C(=N/O)c1ccccc1C2=O [Compound 110, (E)-1-(3-fluorophenyl)-4-(hydroxylimino)-3-methyl-9-oxo-4,9-dihydro-1H-naphthol[2,3-d]imidazole-3-iodide] | > 100 µM | 49 µM | 17.2 µM | 42.3 µM | –
21 | – | – | – | C[n+]1cn(-c2ccc(F)cc2)c2c1/C(=N/O)c1ccccc1C2=O [Compound 111, (E)-1-(4-fluorophenyl)-4-(hydroxylimino)-3-methyl-9-oxo-4,9-dihydro-1H-naphthol[2,3-d]imidazole-3-iodide] | > 100 µM | 19.7 µM | 11.6 µM | 24.6 µM | –
22 | – | – | – | C[n+]1cn(Cc2ccccc2F)c2c1/C(=N/O)c1ccccc1C2=O [Compound 112, (E)-1-(2-fluorobenzyl)-4-(hydroxylimino)-3-methyl-9-oxo-4,9-dihydro-1H-naphthol[2,3-d]imidazole-3-iodide] | 27.3 µM | 7.7 µM | 0.57 µM | 3.7 µM | –
23 | – | – | – | C[n+]1cn(Cc2cccc(F)c2)c2c1/C(=N/O)c1ccccc1C2=O [Compound 113, (E)-1-(3-fluorobenzyl)-4-(hydroxylimino)-3-methyl-9-oxo-4,9-dihydro-1H-naphthol[2,3-d]imidazole-3-iodide] | 73.4 µM | 7.1 µM | 0.57 µM | 10 µM | –
24 | – | – | – | COc1ccc(-n2c[n+](C)c3c2C(=O)c2ccccc2/C3=N\O)cc1 [Compound 114, (E)-4-(hydroxylimino)-1-(4-methoxyphenyl)-3-methyl-9-oxo-4,9-dihydro-1H-naphthol[2,3-d]imidazole-3-iodide] | > 100 µM | 33.8 µM | 2.42 µM | 33 µM | –
25 | – | – | – | COc1ccc(Cn2c[n+](C)c3c2C(=O)c2ccccc2/C3=N\O)cc1 [Compound 115, (E)-4-(hydroxylimino)-1-(4-methoxybenzyl)-3-methyl-9-oxo-4,9-dihydro-1H-naphthol[2,3-d]imidazole-3-iodide] | 17.6 µM | 2.5 µM | 0.13 µM | 1.64 µM | –
26 | – | – | – | C[n+]1cn(-c2ccc(F)c(Cl)c2)c2c1/C(=N/O)c1ccccc1C2=O [Compound 116, (E)-1-(3-chloro-4-fluorophenyl)-4-(hydroxylimino)-3-methyl-9-oxo-4,9-dihydro-1H-naphthol[2,3-d]imidazole-3-iodide] | > 100 µM | > 100 µM | 2.3 µM | > 100 µM | –
27 | – | – | – | C[n+]1cn(-c2ccc(F)c(Br)c2)c2c1/C(=N/O)c1ccccc1C2=O [Compound 117, (E)-1-(3-bromo-4-fluorophenyl)-4-(hydroxylimino)-3-methyl-9-oxo-4,9-dihydro-1H-naphthol[2,3-d]imidazole-3-iodide] | > 100 µM | 87.8 µM | 5.2 µM | 67.7 µM | –
28 | – | – | – | Cn1c[n+](C)c2c1C(=O)c1cccc([N+](=O)[O-])c1/C2=N\O [Compound 118, (E)-4-(hydroxylimino)-1,3-dimethyl-5-nitro-9-oxo-4,9-dihydro-1H-naphthol[2,3-d]imidazole-3-iodide] | 12.9 µM | 0.78 µM | 0.54 µM | 0.89 µM | –
